# What was measured:
# [1] = tested on: HepG2; experiment: cells; format: functional, cell-based; conditions: Homo sapiens, HepG2, 48 h
# Description: Cytotoxicity against human HepG2 cells assessed as inhibition of cell growth measured after 48 hrs by MTT assay
# [2] = tested on: HCT-116; experiment: cells; format: functional, cell-based; conditions: Homo sapiens, HCT-116, 48 h
# Description: Cytotoxicity against human HCT-116 cells assessed as inhibition of cell growth measured after 48 hrs by MTT assay
# [3] = tested on: MCF7; experiment: cells; format: functional, cell-based; conditions: Homo sapiens, MCF7, 48 h
# Description: Cytotoxicity against human MCF7 cells assessed as inhibition of cell growth measured after 48 hrs by MTT assay
# [4] = tested on: PC-3; experiment: Cytotoxicity against human PC-3 cells assessed as inhibition of cell growth measured after 48 hrs by MTT assay; format: functional, cell-based; conditions: PC-3, 48 h
# [5] = tested on: HeLa; experiment: cells; format: functional, cell-based; conditions: Homo sapiens, 48 h
# Description: Cytotoxicity against human HeLa cells assessed as inhibition of cell growth measured after 48 hrs by MTT assay
# [6] = tested on: MCF7; experiment: Induction of apoptosis in human MCF7 cells assessed as fold increase in BAX expression by ELISA assay; format: functional
# [7] = tested on: HCT-116; experiment: Induction of apoptosis in human HCT-116 cells assessed as fold increase in BAX expression by ELISA assay; format: functional
# [8] = tested on: HepG2; experiment: Induction of apoptosis in human HepG2 cells assessed as fold increase in BAX expression by ELISA assay; format: functional
# [9] = tested on: MCF7; experiment: Induction of apoptosis in human MCF7 cells assessed as fold increase in caspases-3 expression by ELISA assay; format: functional
# [10] = tested on: HCT-116; experiment: Induction of apoptosis in human HCT-116 cells assessed as fold increase in caspases-3 expression by ELISA assay; format: functional
# [11] = tested on: HepG2; experiment: Induction of apoptosis in human HepG2 cells assessed as fold increase in caspases-3 expression by ELISA assay; format: functional
# [12] = tested on: MCF7; experiment: Induction of apoptosis in human MCF7 cells assessed as fold increase in caspases-7 expression by ELISA assay; format: functional
# [13] = tested on: HCT-116; experiment: Induction of apoptosis in human HCT-116 cells assessed as fold increase in caspases-7 expression by ELISA assay; format: functional
# [14] = tested on: HepG2; experiment: Induction of apoptosis in human HepG2 cells assessed as fold increase in caspases-7 expression by ELISA assay; format: functional
# [15] = tested on: HCT-116; experiment: Induction of cell cycle arrest in human HCT-116 cells assessed as accumulation at sub-G1 phase by PI-staining based flow cytometry (reference value: 12%); format: functional
# [16] = tested on: HepG2; experiment: Induction of cell cycle arrest in human HepG2 cells assessed as accumulation at G0/G1 phase by PI-staining based flow cytometry (reference value: 35.2%); format: functional
# [17] = tested on: MCF7; experiment: Induction of cell cycle arrest in human MCF7 cells assessed as accumulation at G0/G1 phase by PI-staining based flow cytometry (reference value: 40.8%); format: functional
# [18] = tested on: HCT-116; experiment: Induction of cell cycle arrest in human HCT-116 cells assessed as accumulation at G0/G1 phase by PI-staining based flow cytometry (reference value: 47%); format: functional
# [19] = tested on: HepG2; experiment: Induction of cell cycle arrest in human HepG2 cells assessed as accumulation at S phase by PI-staining based flow cytometry (reference value: 5.8%); format: functional
# [20] = tested on: MCF7; experiment: Induction of cell cycle arrest in human MCF7 cells assessed as accumulation at S phase by PI-staining based flow cytometry (reference value: 6.3%); format: functional
# [21] = tested on: HCT-116; experiment: Induction of cell cycle arrest in human HCT-116 cells assessed as accumulation at S phase by PI-staining based flow cytometry (reference value: 7.1%); format: functional
# [22] = tested on: HepG2; experiment: Induction of cell cycle arrest in human HepG2 cells assessed as accumulation at G2/M phase by PI-staining based flow cytometry (reference value: 41.5%); format: functional
# [23] = tested on: MCF7; experiment: Induction of cell cycle arrest in human MCF7 cells assessed as accumulation at G2/M phase by PI-staining based flow cytometry (reference value: 35.3%); format: functional
# [24] = tested on: HCT-116; experiment: Induction of cell cycle arrest in human HCT-116 cells assessed as accumulation at G2/M phase by PI-staining based flow cytometry (reference value: 29.2%); format: functional
# [25] = tested on: HepG2; experiment: Induction of cell cycle arrest in human HepG2 cells assessed as accumulation at sub-G1 phase by PI-staining based flow cytometry (reference value: 12.6%); format: functional
# [26] = tested on: MCF7; experiment: Induction of cell cycle arrest in human MCF7 cells assessed as accumulation at sub-G1 phase by PI-staining based flow cytometry (reference value: 13.2%); format: functional
# [27] = target: Histone deacetylase 1 (Homo sapiens, UniProt Q13547); experiment: Inhibition of HDAC1 (unknown origin) by ELISA assay
# [28] = target: Histone deacetylase 2 (Homo sapiens, UniProt Q92769); experiment: Inhibition of HDAC2 (unknown origin) by ELISA assay
# [29] = target: T1, Histone deacetylase 8 (Homo sapiens, UniProt Q9BY41); experiment: Inhibition of HDAC8 (unknown origin) by ELISA assay
# T1 sequence (Q9BY41 whole entry): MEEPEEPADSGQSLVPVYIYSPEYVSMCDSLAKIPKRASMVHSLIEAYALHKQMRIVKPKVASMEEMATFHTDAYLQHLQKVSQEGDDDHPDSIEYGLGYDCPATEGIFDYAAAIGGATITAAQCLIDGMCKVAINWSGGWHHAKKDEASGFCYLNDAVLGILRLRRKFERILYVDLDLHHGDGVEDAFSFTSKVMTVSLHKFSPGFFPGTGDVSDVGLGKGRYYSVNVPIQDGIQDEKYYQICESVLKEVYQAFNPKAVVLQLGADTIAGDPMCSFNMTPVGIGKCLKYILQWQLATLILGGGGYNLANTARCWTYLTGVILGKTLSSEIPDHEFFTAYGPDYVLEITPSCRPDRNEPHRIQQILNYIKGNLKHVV
# [30] = target: T2, Protein deacetylase HDAC6 (Homo sapiens, UniProt Q9UBN7); experiment: Inhibition of HDAC6 (unknown origin) by ELISA assay
# T2 sequence (Q9UBN7 whole entry): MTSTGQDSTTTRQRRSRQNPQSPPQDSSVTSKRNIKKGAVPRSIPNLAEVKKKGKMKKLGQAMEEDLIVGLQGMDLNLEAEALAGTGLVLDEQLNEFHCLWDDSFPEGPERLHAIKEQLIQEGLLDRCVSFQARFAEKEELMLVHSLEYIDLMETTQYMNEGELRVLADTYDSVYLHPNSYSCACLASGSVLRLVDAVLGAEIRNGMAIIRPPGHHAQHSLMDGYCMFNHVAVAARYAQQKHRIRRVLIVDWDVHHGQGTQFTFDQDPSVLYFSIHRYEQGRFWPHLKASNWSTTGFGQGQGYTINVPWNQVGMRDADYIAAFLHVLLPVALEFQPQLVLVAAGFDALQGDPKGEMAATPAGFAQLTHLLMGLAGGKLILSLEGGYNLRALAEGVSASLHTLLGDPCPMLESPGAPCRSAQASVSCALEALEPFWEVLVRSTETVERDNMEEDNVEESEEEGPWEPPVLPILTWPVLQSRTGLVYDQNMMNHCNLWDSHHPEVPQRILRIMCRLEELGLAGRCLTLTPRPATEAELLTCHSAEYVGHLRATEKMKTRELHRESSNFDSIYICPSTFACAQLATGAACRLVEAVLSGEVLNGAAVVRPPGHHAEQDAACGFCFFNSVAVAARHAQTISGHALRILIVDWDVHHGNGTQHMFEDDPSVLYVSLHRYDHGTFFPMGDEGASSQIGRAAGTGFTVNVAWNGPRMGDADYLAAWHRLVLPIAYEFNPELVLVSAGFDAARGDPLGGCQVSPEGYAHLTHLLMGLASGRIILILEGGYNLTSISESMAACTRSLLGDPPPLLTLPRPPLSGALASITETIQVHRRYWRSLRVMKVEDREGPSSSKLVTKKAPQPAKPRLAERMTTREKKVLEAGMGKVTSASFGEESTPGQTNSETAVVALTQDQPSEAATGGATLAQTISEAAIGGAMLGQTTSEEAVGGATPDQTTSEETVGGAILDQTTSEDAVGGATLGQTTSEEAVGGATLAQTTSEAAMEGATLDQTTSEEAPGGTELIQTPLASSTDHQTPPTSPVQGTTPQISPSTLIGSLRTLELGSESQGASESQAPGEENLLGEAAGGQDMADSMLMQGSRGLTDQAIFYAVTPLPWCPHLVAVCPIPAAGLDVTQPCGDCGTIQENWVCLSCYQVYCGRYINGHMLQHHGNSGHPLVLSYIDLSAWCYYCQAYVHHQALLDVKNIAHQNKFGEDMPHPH
# [31] = in vitro; conditions: human, WI-38 cells
# Description: Cytotoxicity against human WI-38 cells assessed as inhibition of cell growth measured after 48 hrs by MTT assay
# Histone deacetylase 1, sequence (Q13547 whole entry): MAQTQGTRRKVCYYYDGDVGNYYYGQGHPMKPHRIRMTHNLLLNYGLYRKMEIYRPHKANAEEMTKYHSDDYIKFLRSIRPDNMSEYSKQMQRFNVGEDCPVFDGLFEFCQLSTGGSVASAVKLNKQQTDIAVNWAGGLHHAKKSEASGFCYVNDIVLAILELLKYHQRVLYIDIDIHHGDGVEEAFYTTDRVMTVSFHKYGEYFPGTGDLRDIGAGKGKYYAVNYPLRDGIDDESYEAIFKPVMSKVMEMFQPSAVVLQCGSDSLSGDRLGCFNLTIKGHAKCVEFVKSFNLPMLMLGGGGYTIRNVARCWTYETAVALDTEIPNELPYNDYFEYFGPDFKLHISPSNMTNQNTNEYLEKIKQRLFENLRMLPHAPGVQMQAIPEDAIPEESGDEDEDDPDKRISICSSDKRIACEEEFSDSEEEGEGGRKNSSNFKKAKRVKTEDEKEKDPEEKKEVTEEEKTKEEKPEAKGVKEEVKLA
# Histone deacetylase 2, sequence (Q92769 whole entry): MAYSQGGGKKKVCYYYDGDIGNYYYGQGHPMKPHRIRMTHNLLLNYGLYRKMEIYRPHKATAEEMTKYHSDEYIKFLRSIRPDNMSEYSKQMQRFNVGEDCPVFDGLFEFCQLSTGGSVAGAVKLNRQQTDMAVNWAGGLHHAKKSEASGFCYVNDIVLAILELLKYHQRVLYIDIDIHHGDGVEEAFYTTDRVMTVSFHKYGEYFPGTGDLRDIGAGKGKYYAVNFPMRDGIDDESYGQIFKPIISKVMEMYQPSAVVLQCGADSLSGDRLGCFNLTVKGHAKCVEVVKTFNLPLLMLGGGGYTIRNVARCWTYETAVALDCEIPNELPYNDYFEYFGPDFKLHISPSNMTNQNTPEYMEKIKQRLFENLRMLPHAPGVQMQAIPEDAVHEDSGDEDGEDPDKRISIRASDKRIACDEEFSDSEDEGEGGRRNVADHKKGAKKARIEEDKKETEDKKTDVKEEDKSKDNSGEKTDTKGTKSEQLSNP
compound,measurement,setting,value
COc1ccc(/C=C2\SC(=O)N(CCNC(=O)Nc3c(C)n(C)n(-c4ccccc4)c3=O)C2=O)cc1,IC50,[1],8.37 µM
same,IC50,[2],3.16 µM
same,IC50,[3],5.14 µM
same,IC50,[4],13.9 µM
same,IC50,[5],6.18 µM
same,fold change (FC),[6],7.013
same,fold change (FC),[7],4.9
same,fold change (FC),[8],13.13
same,fold change (FC),[9],5.2
same,fold change (FC),[10],3.9
same,fold change (FC),[11],5.2
same,fold change (FC),[12],6.6
same,fold change (FC),[13],3.7
same,fold change (FC),[14],9.1
same,Activity,[15],39.5%
same,Activity,[16],50.6%
same,Activity,[17],60.6%
same,Activity,[18],55.2%
same,Activity,[19],1.6%
same,Activity,[20],4.8%
same,Activity,[21],1.6%
same,Activity,[22],0%
same,Activity,[23],0.2%
same,Activity,[24],0%
same,Activity,[25],43.4%
same,Activity,[26],31.7%
same,IC50,[27],0.281 µM
same,IC50,[28],0.834 µM
same,IC50,[29],0.517 µM
same,IC50,[30],0.258 µM
same,IC50 at 48 h,[31],34.5 µM
Cc1c(NC(=O)NCCN2C(=O)S/C(=C\c3ccc(Cl)cc3)C2=O)c(=O)n(-c2ccccc2)n1C,IC50,[1],38.8 µM
same,IC50,[2],36.3 µM
same,IC50,[3],46.9 µM
same,IC50,[4],40.1 µM
same,IC50,[5],29.4 µM
same,IC50 at 48 h,[31],27.5 µM
Cc1c(NC(=O)NCCN2C(=O)S/C(=C\c3ccc(Br)cc3)C2=O)c(=O)n(-c2ccccc2)n1C,IC50,[1],52.3 µM
same,IC50,[2],78.1 µM
same,IC50,[3],58.1 µM
same,IC50,[4],> 100 µM
same,IC50,[5],72.6 µM
same,IC50 at 48 h,[31],> 100 µM
Cc1c(NC(=O)CN2C(=O)S/C(=C\c3ccc([N+](=O)[O-])cc3)C2=O)c(=O)n(-c2ccccc2)n1C,IC50,[1],84.3 µM
same,IC50,[2],91.3 µM
same,IC50,[3],82.4 µM
same,IC50,[4],> 100 µM
same,IC50,[5],77.2 µM
same,IC50 at 48 h,[31],43.8 µM
COc1ccc(/C=C2\SC(=O)N(CC(=O)Nc3c(C)n(C)n(-c4ccccc4)c3=O)C2=O)cc1,IC50,[1],68.5 µM
same,IC50,[2],70.3 µM
same,IC50,[3],75.6 µM
same,IC50,[4],93.7 µM
same,IC50,[5],64.8 µM
same,IC50 at 48 h,[31],52.9 µM
Cc1ccc(/C=C2\SC(=O)N(CCNC(=O)Nc3c(C)n(C)n(-c4ccccc4)c3=O)C2=O)cc1,IC50,[1],25.7 µM
same,IC50,[2],32.7 µM
same,IC50,[3],37.4 µM
same,IC50,[4],58.6 µM
same,IC50,[5],22.4 µM
same,IC50 at 48 h,[31],48.1 µM
COc1cc(/C=C2\SC(=O)N(CCNC(=O)Nc3c(C)n(C)n(-c4ccccc4)c3=O)C2=O)cc(OC)c1OC,IC50,[1],10.8 µM
same,IC50,[2],12.5 µM
same,IC50,[3],7.58 µM
same,IC50,[4],35.4 µM
same,IC50,[5],15.8 µM
same,IC50,[27],0.349 µM
same,IC50,[28],1.74 µM
same,IC50,[29],0.344 µM
same,IC50,[30],0.475 µM
same,IC50 at 48 h,[31],51.5 µM
Cc1ccc(/C=C2\SC(=O)N(CC(=O)Nc3c(C)n(C)n(-c4ccccc4)c3=O)C2=O)cc1,IC50,[1],57.6 µM
same,IC50,[2],47.6 µM
same,IC50,[3],65.5 µM
same,IC50,[4],45.3 µM
same,IC50,[5],53.1 µM
same,IC50 at 48 h,[31],83.7 µM
Cc1c(NC(=O)NCCN2C(=O)S/C(=C\c3ccc([N+](=O)[O-])cc3)C2=O)c(=O)n(-c2ccccc2)n1C,IC50,[1],14 µM
same,IC50,[2],44.8 µM
same,IC50,[3],18.6 µM
same,IC50,[4],69.3 µM
same,IC50,[5],37.7 µM
same,IC50,[27],0.16 µM
same,IC50,[28],0.526 µM
same,IC50,[29],0.245 µM
same,IC50,[30],0.144 µM
same,IC50 at 48 h,[31],76.4 µM
Cc1c(NC(=O)CN2C(=O)S/C(=C\c3ccc(Cl)cc3)C2=O)c(=O)n(-c2ccccc2)n1C,IC50,[1],31.9 µM
same,IC50,[2],23 µM
same,IC50,[3],42.6 µM
same,IC50,[4],28.9 µM
same,IC50,[5],19.9 µM
same,IC50 at 48 h,[31],54.4 µM
Cc1c(NC(=O)CN2C(=O)S/C(=C\c3ccc(Br)cc3)C2=O)c(=O)n(-c2ccccc2)n1C,IC50,[1],19.2 µM
same,IC50,[2],7.84 µM
same,IC50,[3],24.1 µM
same,IC50,[4],17.1 µM
same,IC50,[5],9.41 µM
same,IC50,[27],0.458 µM
same,IC50,[28],3.85 µM
same,IC50,[29],1.09 µM
same,IC50,[30],1.63 µM
same,IC50 at 48 h,[31],66.7 µM
O=C(CCCCCCC(=O)Nc1ccccc1)NO [VORINOSTAT],IC50,[4],3.6 µM

# From ChEMBL document CHEMBL5247595, “Synthesis, antitumor, and apoptosis-inducing activities of novel 5-arylidenethiazolidine-2,4-dione derivatives: Histone deacetylases inhibitory activity and molecular docking study” (Eur J Med Chem, 2022)
